Results taken from the supplement of paper PMC10307832.

How the values were obtained:
Test in all cases: relative viability (nuclei count vs DMSO), 5 days (fraction); higher = more cells survive
[1] = compound: CC1=NN=C(O1)C2=NN=C(C=C2)N3CCC(CC3)OC4=C(C=CC(=C4)F)Cl + Nc1nc2[nH]cc(CCc3ccc(C(=O)N[C@@H](CCC(=O)O)C(=O)O)cc3)c2c(=O)[nH]1 [Pemetrexed] (partner 0.2 µM)
In short: (§1)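 A single step with final 0.05% Triton X-100, 1% formaldehyde and 1 ug/ml Hoechst fixed the cells and stained nuclei 5 days after treatment. Lung cancer cell lines in 1536-well plates had been treated by pin tool the day after seeding with one drug alone or a fixed anchor-drug dose plus five library-drug doses (not always all listed) in √10 steps, and nuclei were counted on 4× images. Relative viability is the ratio of nuclei in treated wells to nuclei in vehicle wells, taken as the median of duplicate plates.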

[2] = compound: CC1=NN=C(O1)C2=NN=C(C=C2)N3CCC(CC3)OC4=C(C=CC(=C4)F)Cl + O=C(c1cc(Cc2n[nH]c(=O)c3ccccc23)ccc1F)N1CCN(C(=O)C2CC2)CC1 [Olaparib] (partner 8 µM)
In short: as §1

[3] = compound: CC(C)C[C@@H](C(=O)N[C@H](C(=O)OC1CCCC1)c1ccccc1)[C@H](O)C(=O)NO [Tosedostat] + C[C@]1(O)C[C@@H](c2nc(-c3ccc4ccc(-c5ccccc5)nc4c3)c3c(N)nccn32)C1 [Linsitinib] (partner 1 µM)
In short: as §1

[4] = compound: CC1=NN=C(O1)C2=NN=C(C=C2)N3CCC(CC3)OC4=C(C=CC(=C4)F)Cl + C[C@@H](Oc1cc(-c2cnn(C3CCNCC3)c2)cnc1N)c1c(Cl)ccc(F)c1Cl [Crizotinib] (partner 1 µM)
In short: as §1

Cell Line | relative viability ([1]; first compound 0.253 µM) | relative viability ([1]; first compound 0.8 µM) | relative viability ([1]; first compound 2.53 µM) | relative viability ([1]; first compound 8 µM) | relative viability ([2]; first compound 0.253 µM) | relative viability ([2]; first compound 0.8 µM) | relative viability ([2]; first compound 2.53 µM) | relative viability ([2]; first compound 8 µM) | relative viability ([3]; first compound 0.02 µM) | relative viability ([3]; first compound 0.06325 µM) | relative viability ([3]; first compound 0.2 µM) | relative viability ([3]; first compound 0.6325 µM) | relative viability ([3]; first compound 2 µM) | relative viability ([4]; first compound 0.253 µM) | relative viability ([4]; first compound 0.8 µM) | relative viability ([4]; first compound 2.53 µM) | relative viability ([4]; first compound 8 µM)
NCI-H2085 | 0.801 | 0.676 | 0.841 | 0.696 | 0.636 | 0.604 | 0.709 | 0.553 | 0.935 | 0.889 | 0.724 | 0.838 | 0.836 | 0.76 | 0.656 | 0.821 | 0.683
CAL-12T | 0.946 | 1.05 | 1.03 | 0.9 | 0.639 | 0.68 | 0.651 | 0.644 | 0.728 | 0.762 | 0.739 | 0.709 | 0.642 | 0.552 | 0.602 | 0.728 | 0.506
HCC-44 | 0.264 | 0.378 | 0.282 | 0.31 | 0.295 | 0.358 | 0.346 | 0.363 | 0.59 | 0.656 | 0.688 | 0.681 | 0.473 | 0.451 | 0.392 | 0.431 | 0.373
EKVX | 0.269 | 0.263 | 0.343 | 0.348 | 0.402 | 0.381 | 0.464 | 0.494 | 0.935 | 1.01 | 1.03 | 0.932 | 1.08 | 0.369 | 0.313 | 0.311 | 0.393
NCI-H1734 | 0.433 | 0.364 | 0.434 | 0.438 | 0.544 | 0.509 | 0.57 | 0.472 | 0.902 | 0.989 | 0.867 | 0.913 | 0.827 | 0.652 | 0.688 | 0.62 | 0.626
NCI-H1944 | 0.372 | 0.328 | 0.493 | 0.369 | 0.289 | 0.337 | 0.359 | 0.344 | 1.17 | 1.14 | 1.28 | 1.12 | 1.02 | 0.448 | 0.54 | 0.566 | 0.529
NCI-H1792 | 0.735 | 0.648 | 0.785 | 0.6 | 0.264 | 0.376 | 0.337 | 0.364 | 0.553 | 0.578 | 0.496 | 0.548 | 0.636 | 0.414 | 0.447 | 0.378 | 0.451
Calu-6 | – | – | – | – | 0.381 | 0.389 | 0.385 | 0.384 | 0.979 | 0.942 | 0.907 | 0.848 | 0.647 | 0.485 | 0.469 | 0.483 | 0.465
